Source: patent publication US11116748B2, “Compositions and methods for reducing weight gain” (THE MEDICAL COLLEGE OF WISCONSIN, INC., priority 2018, dated 2021)

What was measured:
[1] = test system: C57bl/6J female mice; test: Risperidone treatment for 60 days, weight gain in mice; format: in vivo; conditions: risperidone for 60 days, vs control
Method: Shotgun metagenomic sequencing data (MiSeq, 2×250, high yield) from stool DNA were analyzed on the Anvi'o visualization platform. Bacterial genomes were refined to either genus or species level and ordered as slices within a ring by gene similarity (hierarchical clustering with a Hidden Markov Model).

[2] = test system: gut microbiome; conditions: risperidone; cited from earlier work
[3] = test system: C57bl/6J female mice; test: Supplementation with L. reuteri (daily gavage) with or without risperidone in drinking water: body mass and visceral fat pads; format: in vivo; conditions: risperidone-treated mice, 64 days, relative to risperidone plus L. reuteri lacking reutericyclin production; Wilcoxon p<0.05

| SMILES | weight gain [1] | growth of organisms under anaerobic conditions [2] | weight gain (body mass increase) [3] |
| --- | --- | --- | --- |
| Cc1nc2n(c(=O)c1CCN1CCC(c3noc4cc(F)ccc34)CC1)CCCC2 [risperidone] | statistically significant weight gain | selectively suppressed growth of organisms under anaerobic conditions | – |
| CCCCCCC/C=C/C(=O)N1C(O)=C(C(C)=O)C(=O)[C@H]1CC(C)C [reutericyclin, (5R)-1-(2-decenoyl)-2-hydroxy-3-acetyl-5-isobutyl-Δ2-pyrroline-4-one] | – | – | prevents weight gain |
